In US9556109B1, “Triscationic amphiphile derivative compounds having a pendent alcohol group, compositions thereof, and methods for making same” (James Madison Innovations, Inc., priority 2015, dated 2017):
In brackets after ≈: the same amount, converted by molar mass.

Assays:
[1] = test system: E. faecalis (G+); assay: Minimum inhibitory concentration (MIC), E. faecalis; type: cell-based, Enterococcus faecalis; settings: Experiment 2, Table 3
[2] = test system: S. aureus (G+); assay: Minimum inhibitory concentration (MIC), S. aureus; type: cell-based, Staphylococcus aureus
[3] = test system: B. anthracis (G+); type: cell-based; settings: Experiment 2, Table 3
[4] = test system: P. aeruginosa (G−); assay: Minimum inhibitory concentration (MIC), P. aeruginosa; type: cell-based, Pseudomonas aeruginosa
[5] = test system: E. coli (G−); assay: Minimum inhibitory concentration (MIC), E. coli; type: cell-based, Escherichia coli
[6] = test system: B. subtilis (G+); type: cell-based; settings: Experiment 2, Table 3
[7] = test system: Pa1 (G−); assay: Minimum inhibitory concentration (MIC), Pa1; settings: Experiment 1, Table 2
[8] = test system: Pa2 (G−); assay: Minimum inhibitory concentration (MIC), Pa2; settings: Experiment 1, Table 2
[9] = test system: S. agalactiae (G+); assay: Minimum inhibitory concentration (MIC), S. agalactiae; type: cell-based, Streptococcus agalactiae; settings: Experiment 2, Table 3
[10] = Isothermal titration calorimetry: critical aggregation concentration and degree of ionization; type: physicochemical; settings: 37° C.; for CAC: ITC, pure water
Protocol: Isothermal titration calorimetry (ITC) was used to determine the critical aggregation concentration (CAC) and the degree of ionization at 37° C. associated with aggregate formation for each amphiphile for the M-E series, as shown in Table 1.
A Nano ITC was used to measure the heat change associated with the deaggregation of amphiphiles via power compensation. A concentrated aqueous solution of amphiphile (>>CAC) was titrated into a thermally controlled sample cell, initially containing pure water, in a series of discrete injections. Isothermal titration calorimetry was used to determine the critical aggregation concentration (CAC).
CAC and ΔHagg were determined using a Nano-ITC (TA-Instruments). Prior to each experiment the sample cell was washed with dH2O (300 mL), ethanol (100 mL), dH2O (300 mL) and nanopure water (200 mL). Next, 950 μL of nanopure water was added to the sample cell. A concentrated aqueous solution (>>CAC) of amphiphile was prepared and equilibrated at 37° C. A 250 μL syringe was filled with the aqueous solution, and loaded into the Nano ITC. Multiple single injections in aliquots of 5 μL were injected into the sample cell with time intervals varying from 300 s to 1400 s. Samples were continuously stirred (300 rpm) throughout the titration. The Nano-Analyze program (TA-Instruments) was used to analyze the data. CAC and ΔHagg values reported are the average of two or more repeat experiments for each amphiphile.

[11] = test system: P. aeruginosa (G−); settings: comparison values of known antibiotics; cited from earlier work
[12] = test system: Gram-positive bacteria; assay: MIC, summary for Gram-positive bacteria; type: cell-based; settings: text summary over tested strains
[13] = test system: Pseudomonas aeruginosa biofilm; assay: Crystal Violet Biofilm Disruption Assay; type: cell-based; settings: for Max % disruption: over 250-2 μM
Protocol: A Crystal Violet Biofilm Disruption Assay was adapted from the techniques described in Bendouah, et al. 2006, Biofilm formation by Staphylococcus aureus and Pseudomonas aeruginosa is associated with an unfavorable evolution after surgery for chronic sinusitis and nasal polyposis, Otolaryngol. […] Bacteriol. 193 (20):5616-22. doi: 10.1128/JB.05534-11, which are incorporated by reference in their entirety. Applicants' adapted assay was performed as follows: • 1. Bacterial growth: […] (120 RPM in shaking incubator) for 24 hours • 2. Working stock: Overnight liquid culture diluted down to a bacterial concentration of approximately 5×10^6 CFU/mL in fresh LB • 3. Plate inoculation: Sterile 96-well microtiter plate inoculated with working stock: […] Plate covered with plastic cover, parafilm wrapped around edges; Incubate 24 hours at 37 degrees C. (stationary incubator) to establish biofilm • 4. Treatment: Row A and B: 100 μL sterile PBS (blank and negative control for disruption, respectively); […] Plate covered, wrapped with fresh parafilm, incubated at 37 degrees C. for 24 hours • 5. Staining and quantification: Plate rinsed twice with 1×PBS and allowed to dry; Wells stained with 100 μL 0.1% Crystal Violet dye for 15 minutes, excess rinsed off with gentle running dI water, allowed to dry; Stain dissolved in 100 μL 95% ethanol per well for 1 hour; Ethanol/CV solution transferred to fresh 96-well plate; Plate read at 570 nm on spectrophotometer plate reader; Values for rows C-H compared to row B (neg. control for disruption) to obtain % biofilm disruption at each concentration.

[14] = test system: Gram-negative bacteria; assay: MIC, summary for Gram-negative bacteria; type: cell-based; settings: text summary over tested strains

CCCCCCCCCCCCCCCC[N+](C)(C)Cc1cc(C[N+](C)(C)CCO)cc(C[N+](C)(C)CCCCCCCCCCCCCCCC)c1.[Br-].[Br-].[Br-] [Compound 5]
MIC E. faecalis (G+) [1]: 63 µM
MIC S. aureus (G+) ([2]; Experiment 1, Table 2): 63 µM
MIC S. aureus (G+) ([2]; Experiment 2, Table 3): 63 µM
MIC B. anthracis (G+) [3]: >250 µM
MIC P. aeruginosa (G−) ([4]; Experiment 1, Table 2): 125 µM
MIC P. aeruginosa (G−) ([4]; Experiment 2, Table 3): 125 µM
MIC E. coli (G−) ([5]; Experiment 1, Table 2): 63 µM
MIC E. coli (G−) ([5]; Experiment 2, Table 3): 63 µM
MIC B. subtilis (G+) [6]: >250 µM
MIC Pa1 (G−) [7]: >250 µM
MIC Pa2 (G−) [8]: >250 µM
MIC S. agalactiae (G+) [9]: >250 µM
Degree of Ionization [10]: 0.15
CAC [10]: 0.12 mM

CO/N=C(\C(=O)N[C@@H]1C(=O)N2C(C(=O)[O-])=C(C[N+]3(C)CCCC3)CS[C@H]12)c1csc(N)n1 [cefepime]
MIC against P. aeruginosa [11]: 12.5 µM (≈ 6.01 µg/mL)

CCCCCCCCCC[N+](C)(C)Cc1cc(C[N+](C)(C)CCO)cc(C[N+](C)(C)CCCCCCCCCC)c1.[Br-].[Br-].[Br-] [Compound 2]
MIC E. faecalis (G+) [1]: 4 µM
MIC S. aureus (G+) ([2]; Experiment 2, Table 3): 125 µM
MIC B. anthracis (G+) [3]: 4 µM
MIC P. aeruginosa (G−) ([4]; Experiment 2, Table 3): 250 µM
MIC E. coli (G−) ([5]; Experiment 2, Table 3): 125 µM
MIC B. subtilis (G+) [6]: 16 µM
MIC S. agalactiae (G+) [9]: 4 µM
Degree of Ionization [10]: 0.24
CAC [10]: 9.5 mM

CCCCCCCCCCCC[N+](C)(C)Cc1cc(C[N+](C)(C)CCO)cc(C[N+](C)(C)CCCCCCCCCCCC)c1.[Br-].[Br-].[Br-] [Compound 3]
MIC for Gram-positive bacteria [12]: 4 µM
MIC E. faecalis (G+) [1]: 2 µM
MIC S. aureus (G+) ([2]; Experiment 1, Table 2): 4 µM
MIC S. aureus (G+) ([2]; Experiment 2, Table 3): 4 µM
Min conc. >50% disruption [13]: 63 µM
% disruption average ([13]; 2 μM): 0%
% disruption trial 1 ([13]; 2 μM): 0%
% disruption trial 2 ([13]; 2 μM): 0%
% disruption average ([13]; 4 μM): 5.12%
% disruption trial 1 ([13]; 4 μM): 1.759%
% disruption trial 2 ([13]; 4 μM): 8.481%
% disruption average ([13]; 8 μM): 13.44%
% disruption trial 1 ([13]; 8 μM): 24.06%
% disruption trial 2 ([13]; 8 μM): 2.817%
% disruption average ([13]; 16 μM): 30.79%
% disruption trial 1 ([13]; 16 μM): 47.34%
% disruption trial 2 ([13]; 16 μM): 14.23%
% disruption average ([13]; 31 μM): 46.0133%
% disruption trial 1 ([13]; 31 μM): 61.1%
% disruption trial 2 ([13]; 31 μM): 30.93%
% disruption average ([13]; 63 μM): 68.14%
% disruption trial 1 ([13]; 63 μM): 72.05%
% disruption trial 2 ([13]; 63 μM): 64.22%
% disruption average ([13]; 125 μM): 65.66%
% disruption trial 1 ([13]; 125 μM): 65.04%
% disruption trial 2 ([13]; 125 μM): 66.29%
% disruption average ([13]; 250 μM): 66.48%
% disruption trial 1 ([13]; 250 μM): 67.34%
% disruption trial 2 ([13]; 250 μM): 65.61%
Max % disruption [13]: 68%
MIC B. anthracis (G+) [3]: 2 µM
MIC P. aeruginosa (G−) ([4]; Experiment 1, Table 2): 8 µM
MIC P. aeruginosa (G−) ([4]; Experiment 2, Table 3): 8 µM
MIC E. coli (G−) ([5]; Experiment 1, Table 2): 4 µM
MIC E. coli (G−) ([5]; Experiment 2, Table 3): 4 µM
MIC B. subtilis (G+) [6]: 4 µM
MIC Pa1 (G−) [7]: 8 µM
MIC Pa2 (G−) [8]: 8 µM
MIC for Gram-negative bacteria [14]: 4 to 8 µM
MIC S. agalactiae (G+) [9]: 2 µM
Degree of Ionization [10]: 0.20
CAC [10]: 1.9 mM

NC[C@H]1O[C@H](O[C@H]2[C@H](O)[C@@H](O[C@H]3O[C@H](CO)[C@@H](O)[C@H](N)[C@H]3O)[C@H](N)C[C@@H]2N)[C@H](N)C[C@@H]1O [Tobramycin, reference compound]
Min conc. >50% disruption [13]: 31 µM
% disruption average ([13]; 2 μM): 6.808%
% disruption trial 1 ([13]; 2 μM): 0%
% disruption trial 2 ([13]; 2 μM): 13.62%
% disruption average ([13]; 4 μM): 27.66%
% disruption trial 1 ([13]; 4 μM): 0%
% disruption trial 2 ([13]; 4 μM): 55.3151%
% disruption average ([13]; 8 μM): 32.13%
% disruption trial 1 ([13]; 8 μM): 15.46%
% disruption trial 2 ([13]; 8 μM): 48.79%
% disruption average ([13]; 16 μM): 13.9806%
% disruption trial 1 ([13]; 16 μM): 0%
% disruption trial 2 ([13]; 16 μM): 27.9612%
% disruption average ([13]; 31 μM): 61.0098%
% disruption trial 1 ([13]; 31 μM): 51.89%
% disruption trial 2 ([13]; 31 μM): 70.13%
% disruption average ([13]; 63 μM): 60.79%
% disruption trial 1 ([13]; 63 μM): 53.5149%
% disruption trial 2 ([13]; 63 μM): 68.07%
% disruption average ([13]; 125 μM): 43.07%
% disruption trial 1 ([13]; 125 μM): 34.88%
% disruption trial 2 ([13]; 125 μM): 51.26%
% disruption average ([13]; 250 μM): 3.803%
% disruption trial 1 ([13]; 250 μM): 0%
% disruption trial 2 ([13]; 250 μM): 7.607%
Max % disruption [13]: 61%
MIC against P. aeruginosa [11]: 6.4 µM (≈ 2.99 µg/mL)

CCCCCCCCCCCCCC[N+](C)(C)Cc1cc(C[N+](C)(C)CCO)cc(C[N+](C)(C)CCCCCCCCCCCCCC)c1.[Br-].[Br-].[Br-] [Compound 4]
MIC E. faecalis (G+) [1]: 4 µM
MIC S. aureus (G+) ([2]; Experiment 1, Table 2): 8 µM
MIC S. aureus (G+) ([2]; Experiment 2, Table 3): 8 µM
MIC B. anthracis (G+) [3]: 8 µM
MIC P. aeruginosa (G−) ([4]; Experiment 1, Table 2): 125 µM
MIC P. aeruginosa (G−) ([4]; Experiment 2, Table 3): 125 µM
MIC E. coli (G−) ([5]; Experiment 1, Table 2): 8 µM
MIC E. coli (G−) ([5]; Experiment 2, Table 3): 8 µM
MIC B. subtilis (G+) [6]: 8 µM
MIC Pa1 (G−) [7]: 250 µM
MIC Pa2 (G−) [8]: 250 µM
MIC S. agalactiae (G+) [9]: 4 µM
Degree of Ionization [10]: 0.18
CAC [10]: 0.47 mM

CCCCCCCC[N+](C)(C)Cc1cc(C[N+](C)(C)CCO)cc(C[N+](C)(C)CCCCCCCC)c1.[Br-].[Br-].[Br-] [Compound 1]
MIC E. faecalis (G+) [1]: 63 µM
MIC S. aureus (G+) ([2]; Experiment 2, Table 3): 250 µM
MIC B. anthracis (G+) [3]: 63 µM
MIC P. aeruginosa (G−) ([4]; Experiment 2, Table 3): >250 µM
MIC E. coli (G−) ([5]; Experiment 2, Table 3): >250 µM
MIC B. subtilis (G+) [6]: 250 µM
MIC S. agalactiae (G+) [9]: 125 µM
